“And” between values parts separate entries of the source, which are not always exact repeats. Equal values may be shown once. Toxic doses and inconclusive results are not listed.
Tested on: P388 leukemia ip, CD2F1 mice, survival T/C
Assay: NCI In Vivo Anticancer Drug Screen. Data for tumor model P388 Leukemia (intraperitoneal) in CD2F1 (CDF1) mice
Conditions: endpoint: median survival time, higher = longer survival
Method in brief: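 Mice carrying the transplanted tumor received test compound or vehicle. Survival was recorded in each group, and the value is the treated-group measurement divided by that of the vehicle-treated control group.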

[1] = dose: 50.0 mg/kg/injection, schedule: Q01DX005 (ip), vehicle: Klucel (hydroxypropylcellulose) (HPC)
[2] = dose: 100.0 mg/kg/injection, schedule: Q01DX001 (ip), vehicle: Klucel (hydroxypropylcellulose) (HPC)
[3] = dose: 200.0 mg/kg/injection, schedule: Q01DX001 (ip), vehicle: Klucel (hydroxypropylcellulose) (HPC)
[4] = dose: 50.0 mg/kg/injection, schedule: Q01DX009 (ip), vehicle: saline with Tween-80
[5] = dose: 100.0 mg/kg/injection, schedule: Q01DX009 (ip), vehicle: saline with Tween-80
[6] = dose: 200.0 mg/kg/injection, schedule: Q01DX009 (ip), vehicle: saline with Tween-80
[7] = dose: 50.0 mg/kg/injection, schedule: Q01DX009 (ip), vehicle: Klucel (hydroxypropylcellulose) (HPC)
[8] = dose: 100.0 mg/kg/injection, schedule: Q01DX009 (ip), vehicle: Klucel (hydroxypropylcellulose) (HPC)

Q: Which T/C (dose: 100.0 mg/kg/injection, schedule: Q04DX003 (ip), vehicle: saline) does the source give for CC1(C)N=C(N)N=C(N)N1c1ccc(CNC(=O)Nc2ccc(S(=O)(=O)F)cc2)cc1 here?
A: 172 % of control

Q: And the T/C (dose: 200.0 mg/kg/injection, schedule: Q04DX003 (ip), vehicle: saline)?
A: 181 % of control

Q: And the T/C (dose: 400.0 mg/kg/injection, schedule: Q04DX003 (ip), vehicle: saline)?
A: 90 % of control

Q: Which results are given for COC(=O)Nc1nc2ccc(OCCO)cc2[nH]1?
A: T/C (dose: 25.0 mg/kg/injection, schedule: Q01DX005 (ip), vehicle: DMSO): 104 % of control; T/C (dose: 50.0 mg/kg/injection, schedule: Q01DX005 (ip), vehicle: DMSO): 100 % of control; T/C (dose: 100.0 mg/kg/injection, schedule: Q01DX005 (ip), vehicle: DMSO): 104 % of control; T/C (dose: 200.0 mg/kg/injection, schedule: Q01DX005 (ip), vehicle: DMSO): 103 % of control; T/C (dose: 400.0 mg/kg/injection, schedule: Q01DX005 (ip), vehicle: DMSO): 101 % of control

Q: C/C(=N\Nc1ccc2ccccc2n1)c1ccccn1 was tested. Which T/C (dose: 12.5 mg/kg/injection, schedule: Q01DX005 (ip), vehicle: Klucel (hydroxypropylcellulose) (HPC)) did it give?
A: 107 % of control

Q: What about the T/C (dose: 25.0 mg/kg/injection, schedule: Q01DX005 (ip), vehicle: Klucel (hydroxypropylcellulose) (HPC)) of the same compound?
A: 106 % of control

Q: And the T/C [1]?
A: 114 % of control and 116 % of control

Q: Which results are given for CN(C)CCC(c1ccccc1)C(CO)c1ccccc1 (stereo unspecified)?
A: T/C [2]: 116 % of control; T/C [3]: 102 % of control

Q: CCOC(=O)C(C)(C)Oc1ccc(Cl)cc1 was tested. Which T/C [4] did it give?
A: 100 % of control

Q: And the T/C [5]?
A: 93 % of control

Q: And the T/C [6]?
A: 112 % of control

Q: Which results are given for CCc1cccc2c(NCCCCCCNc3c4ccccc4nc4c(CC)cccc34)c3ccccc3nc12?
A: T/C (dose: 0.63 mg/kg/injection, schedule: Q01DX009 (ip), vehicle: other): 113 % of control; T/C (dose: 1.25 mg/kg/injection, schedule: Q01DX009 (ip), vehicle: other): 109 % of control; T/C (dose: 2.5 mg/kg/injection, schedule: Q01DX009 (ip), vehicle: other): 112 % of control; T/C (dose: 3.75 mg/kg/injection, schedule: Q01DX009 (ip), vehicle: other): 105 % of control; T/C (dose: 5.0 mg/kg/injection, schedule: Q01DX009 (ip), vehicle: other): 110 % of control; T/C (dose: 7.5 mg/kg/injection, schedule: Q01DX009 (ip), vehicle: other): 114 % of control; T/C (dose: 15.0 mg/kg/injection, schedule: Q01DX009 (ip), vehicle: other): 96 % of control

Q: With Cn1nnc2c1C(=O)c1ccccc1C2=O as the compound, how does the T/C [4] read?
A: 106 % of control

Q: And the T/C [5]?
A: 111 % of control

Q: And the T/C [6]?
A: 110 % of control

Q: Which T/C [7] does the source give for COc1ccc2nc(NC(=O)Nc3ccc(C)c(NC(=O)Nc4nc5ccc(OC)cc5s4)c3)sc2c1 here?
A: 92 % of control

Q: And the T/C [8]?
A: 89 % of control

Q: Which results are given for CC1CC=C2C=C(Cl)C=CC2(C)C1C (stereo unspecified)?
A: T/C (dose: 50.0 mg/kg/injection, schedule: Q01DX005 (ip), vehicle: saline with Tween-80): 98 % of control; T/C (dose: 100.0 mg/kg/injection, schedule: Q01DX005 (ip), vehicle: saline with Tween-80): 96 % of control; T/C (dose: 200.0 mg/kg/injection, schedule: Q01DX005 (ip), vehicle: saline with Tween-80): 91 % of control

Q: Which T/C (dose: 60.0 mg/kg/injection, schedule: Q01DX005 (ip), vehicle: saline) does the source give for [Ni]=[Se] here?
A: 97 % of control

Q: What about the T/C (dose: 120.0 mg/kg/injection, schedule: Q01DX005 (ip), vehicle: saline) of the same compound?
A: 96 % of control

Q: And the T/C (dose: 240.0 mg/kg/injection, schedule: Q01DX005 (ip), vehicle: saline)?
A: 97 % of control

Q: Which T/C (dose: 0.89 mg/kg/injection, schedule: Q01DX009 (ip), vehicle: saline with Tween-80) does the source give for CCCOC1=C(N2CC2)C(=O)C(OCCC)=C(N2CC2)C1=O here?
A: 106 % of control

Q: What about the T/C (dose: 3.0 mg/kg/injection, schedule: Q01DX009 (ip), vehicle: saline with Tween-80) of the same compound?
A: 179 % of control

Q: What about the T/C (dose: 4.0 mg/kg/injection, schedule: Q01DX009 (ip), vehicle: saline with Tween-80) of the same compound?
A: 181 % of control

Q: What about the T/C (dose: 6.0 mg/kg/injection, schedule: Q01DX009 (ip), vehicle: saline with Tween-80) of the same compound?
A: 186 % of control

Q: And the T/C (dose: 6.25 mg/kg/injection, schedule: Q01DX009 (ip), vehicle: saline with Tween-80)?
A: 190 % of control

Q: What about the T/C (dose: 9.0 mg/kg/injection, schedule: Q01DX009 (ip), vehicle: saline with Tween-80) of the same compound?
A: 109 % of control

Q: How did the T/C [2] turn out when O=C(O)CCC(C(=O)O)N(Cc1ccccc1)Cc1ccccc1 (stereo unspecified) was run?
A: 105 % of control

Q: What about the T/C [3] of the same compound?
A: 100 % of control

Q: And the T/C (dose: 400.0 mg/kg/injection, schedule: Q01DX001 (ip), vehicle: Klucel (hydroxypropylcellulose) (HPC))?
A: 105 % of control

Q: Which T/C [4] does the source give for CC(=NCCN=C(C)c1ccccc1O)c1ccccc1O.[Cu] here?
A: 105 % of control

Q: What about the T/C [5] of the same compound?
A: 99 % of control

Q: And the T/C [6]?
A: 89 % of control

Q: What does the source list for Nc1ncnc2c1c(-c1ccc(Cl)cc1)cn2-c1ccccc1?
A: T/C (dose: 60.0 mg/kg/injection, schedule: Q01DX005 (ip), vehicle: saline with Tween-80): 100 % of control; T/C (dose: 120.0 mg/kg/injection, schedule: Q01DX005 (ip), vehicle: saline with Tween-80): 96 % of control; T/C (dose: 240.0 mg/kg/injection, schedule: Q01DX005 (ip), vehicle: saline with Tween-80): 90 % of control

Q: What does the source list for Nc1nc(Cl)c2[nH]cnc2n1?
A: T/C [4]: 108 % of control; T/C (dose: 50.0 mg/kg/injection, schedule: Q04DX003 (ip), vehicle: saline with Tween-80): 95 % of control; T/C [5]: 99 % of control; T/C (dose: 100.0 mg/kg/injection, schedule: Q04DX003 (ip), vehicle: saline with Tween-80): 100 % of control; T/C (dose: 200.0 mg/kg/injection, schedule: Q04DX003 (ip), vehicle: saline with Tween-80): 100 % of control

Q: Which results are given for COC(=O)c1ccc(SCC2(CCN3C(=O)c4ccccc4C3=O)OCCO2)cc1?
A: T/C (dose: 100.0 mg/kg/injection, schedule: Q04DX003 (ip), vehicle: Klucel (hydroxypropylcellulose) (HPC)): 97 % of control; T/C (dose: 200.0 mg/kg/injection, schedule: Q04DX003 (ip), vehicle: Klucel (hydroxypropylcellulose) (HPC)): 96 % of control; T/C (dose: 400.0 mg/kg/injection, schedule: Q04DX003 (ip), vehicle: Klucel (hydroxypropylcellulose) (HPC)): 88 % of control

Q: What does the source list for Cc1ocnc1Cc1ccc(O)c(O)c1?
A: T/C (dose: 100.0 mg/kg/injection, schedule: Q01DX001 (ip), vehicle: saline): 101 % of control; T/C (dose: 200.0 mg/kg/injection, schedule: Q01DX001 (ip), vehicle: saline): 96 % of control; T/C (dose: 400.0 mg/kg/injection, schedule: Q01DX001 (ip), vehicle: saline): 98 % of control

Q: How did the T/C [7] turn out when CCOC(=O)Nc1nn(-c2ccc3ccccc3n2)c(=O)[nH]1 was run?
A: 113 % of control

Q: And the T/C [8]?
A: 109 % of control

Q: And the T/C (dose: 200.0 mg/kg/injection, schedule: Q01DX009 (ip), vehicle: Klucel (hydroxypropylcellulose) (HPC))?
A: 118 % of control

Q: How did the T/C (dose: 3.12 mg/kg/injection, schedule: Q01DX005 (ip), vehicle: saline with Tween-80) turn out when NNC(=O)c1ccc(OCc2nc3ccccc3[nH]2)cc1 was run?
A: 100 % of control

Q: And the T/C (dose: 6.25 mg/kg/injection, schedule: Q01DX005 (ip), vehicle: saline with Tween-80)?
A: 100 % of control

Q: And the T/C (dose: 12.5 mg/kg/injection, schedule: Q01DX005 (ip), vehicle: saline with Tween-80)?
A: 98 % of control

Q: What about the T/C (dose: 25.0 mg/kg/injection, schedule: Q01DX005 (ip), vehicle: saline with Tween-80) of the same compound?
A: 94 % of control

Q: Which results are given for C=CC1=C(C)c2cc3[n-]c(c(CC(=O)O)c4nc(cc5[n-]c(cc1n2)c(C)c5CC)C(C)=C4C(=O)O)C(CCC(=O)O)C3C.[Pt+2] (stereo unspecified)?
A: T/C (dose: 25.0 mg/kg/injection, schedule: Q04DX002 (ip), vehicle: saline): 96 % of control; T/C (dose: 50.0 mg/kg/injection, schedule: Q04DX002 (ip), vehicle: saline): 99 % of control; T/C (dose: 100.0 mg/kg/injection, schedule: Q04DX002 (ip), vehicle: saline): 97 % of control; T/C (dose: 200.0 mg/kg/injection, schedule: Q04DX002 (ip), vehicle: saline): 88 % of control; T/C (dose: 400.0 mg/kg/injection, schedule: Q04DX002 (ip), vehicle: saline): 90 % of control

Q: For C#CCCCC#C, which T/C [1] is on record?
A: 98 % of control

Q: What about the T/C (dose: 100.0 mg/kg/injection, schedule: Q01DX005 (ip), vehicle: Klucel (hydroxypropylcellulose) (HPC)) of the same compound?
A: 98 % of control

Q: What about the T/C (dose: 200.0 mg/kg/injection, schedule: Q01DX005 (ip), vehicle: Klucel (hydroxypropylcellulose) (HPC)) of the same compound?
A: 104 % of control

Q: Which results are given for CC(C)(C)CC(C)(C)c1ccc(OCCOc2ccc(C(=O)O)cc2)cc1?
A: T/C (dose: 100.0 mg/kg/injection, schedule: Q01DX001 (ip), vehicle: saline sonified): 105 % of control; T/C (dose: 200.0 mg/kg/injection, schedule: Q01DX001 (ip), vehicle: saline sonified): 110 % of control; T/C (dose: 400.0 mg/kg/injection, schedule: Q01DX001 (ip), vehicle: saline sonified): 110 % of control

Q: With O=C(CC1NCCCC1O)Cn1cnc2ccccc2c1=O (stereo unspecified) as the compound, how does the T/C (dose: 1.0 mg/kg/injection, schedule: Q01DX009 (ip), vehicle: distilled water + alcohol) read?
A: 116 % of control

Q: What about the T/C (dose: 2.0 mg/kg/injection, schedule: Q01DX009 (ip), vehicle: distilled water + alcohol) of the same compound?
A: 107 % of control

Q: And the T/C (dose: 4.0 mg/kg/injection, schedule: Q01DX009 (ip), vehicle: distilled water + alcohol)?
A: 107 % of control

From PubChem BioAssay AID330 (DTP/NCI, 2004)
